Values joined by “and” are separate entries in the source; they are usually repeats but may differ in a detail not shown here. Equal values may be shown once. Toxic doses and inconclusive results are not listed. Rule for the calls: active = survival T/C of 150% or more; inactive = T/C below 125% in these data.
Test system: P388 leukemia ip, CD2F1 mice, survival T/C
Assay: NCI In Vivo Anticancer Drug Screen. Data for tumor model P388 Leukemia (intraperitoneal) in CD2F1 (CDF1) mice
Conditions: endpoint: median survival time, higher = longer survival
In short: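 Mice carrying the transplanted tumor received test compound or vehicle. Survival was recorded in each group, and the value is the treated-group measurement divided by that of the vehicle-treated control group.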

[1] = dose: 60.0 mg/kg/injection, schedule: Q01DX005 (ip), vehicle: Klucel (hydroxypropylcellulose) (HPC)
[2] = dose: 120.0 mg/kg/injection, schedule: Q01DX005 (ip), vehicle: Klucel (hydroxypropylcellulose) (HPC)
[3] = dose: 240.0 mg/kg/injection, schedule: Q01DX005 (ip), vehicle: Klucel (hydroxypropylcellulose) (HPC)
[4] = dose: 50.0 mg/kg/injection, schedule: Q01DX009 (ip), vehicle: saline with Tween-80
[5] = dose: 100.0 mg/kg/injection, schedule: Q01DX009 (ip), vehicle: saline with Tween-80
[6] = dose: 200.0 mg/kg/injection, schedule: Q01DX009 (ip), vehicle: saline with Tween-80
[7] = dose: 50.0 mg/kg/injection, schedule: Q01DX005 (ip), vehicle: saline with Tween-80
[8] = dose: 200.0 mg/kg/injection, schedule: Q01DX005 (ip), vehicle: Klucel (hydroxypropylcellulose) (HPC)
[9] = dose: 60.0 mg/kg/injection, schedule: Q01DX005 (ip), vehicle: saline with Tween-80
[10] = dose: 120.0 mg/kg/injection, schedule: Q01DX005 (ip), vehicle: saline with Tween-80
[11] = dose: 240.0 mg/kg/injection, schedule: Q01DX005 (ip), vehicle: saline with Tween-80
[12] = dose: 50.0 mg/kg/injection, schedule: Q01DX005 (ip), vehicle: Klucel (hydroxypropylcellulose) (HPC)
[13] = dose: 100.0 mg/kg/injection, schedule: Q01DX005 (ip), vehicle: Klucel (hydroxypropylcellulose) (HPC)

Measured: T/C

O=C(Oc1ccc(=O)[nH]n1)c1ccccc1
inactive: [1] 102 % of control | [2] 115 % of control | [3] 111 % of control

COS(=O)(=O)OC1(SC)C=C(c2ccccc2)SS1 (configuration not stated)
inactive: dose: 12.5 mg/kg/injection, schedule: Q01DX001 (ip), vehicle: saline 96 % of control | dose: 25.0 mg/kg/injection, schedule: Q01DX001 (ip), vehicle: saline 109 % of control and 121 % of control | dose: 50.0 mg/kg/injection, schedule: Q01DX001 (ip), vehicle: saline 118 % of control and 122 % of control

COC(=O)C(CS[C@@H]1CCCC[C@H]1O)NC(C)=O (some centres not stated)
inactive: dose: 40.0 mg/kg/injection, schedule: Q01DX005 (ip), vehicle: saline 92 % of control | dose: 60.0 mg/kg/injection, schedule: Q01DX005 (ip), vehicle: saline 96 % of control | dose: 120.0 mg/kg/injection, schedule: Q01DX005 (ip), vehicle: saline 96 % of control

NCCc1cc(=O)[nH]o1
inactive: dose: 50.0 mg/kg/injection, schedule: Q01DX009 (ip), vehicle: suspension in saline 90 % of control | dose: 100.0 mg/kg/injection, schedule: Q01DX009 (ip), vehicle: suspension in saline 90 % of control | dose: 200.0 mg/kg/injection, schedule: Q01DX009 (ip), vehicle: suspension in saline 91 % of control

CN(C)CN1C(=O)S/C(=C2\C(=O)N(CN(C)C)c3ccccc32)C1=O
inactive: dose: 30.0 mg/kg/injection, schedule: Q01DX005 (ip), vehicle: Klucel (hydroxypropylcellulose) (HPC) 118 % of control | [1] 120 % of control and 121 % of control | [2] 113 % of control | [3] 120 % of control

C1=CCOCOC1
inactive: [4] 102 % of control and 109 % of control (2×) | [5] 104 % of control and 109 % of control and 116 % of control | [6] 111 % of control

COc1cccc(-n2c(=S)[nH]c3ccccc3c2=O)c1
inactive: [7] 93 % of control | dose: 100.0 mg/kg/injection, schedule: Q01DX005 (ip), vehicle: saline with Tween-80 87 % of control | dose: 200.0 mg/kg/injection, schedule: Q01DX005 (ip), vehicle: saline with Tween-80 89 % of control

Cc1cc2c(cc1C)Nc1oc3ccc4ccccc4c3c(=O)c1C=N2
inactive: dose: 6.25 mg/kg/injection, schedule: Q01DX005 (ip), vehicle: Klucel (hydroxypropylcellulose) (HPC) 104 % of control | dose: 12.5 mg/kg/injection, schedule: Q01DX005 (ip), vehicle: Klucel (hydroxypropylcellulose) (HPC) 99 % of control | dose: 25.0 mg/kg/injection, schedule: Q01DX005 (ip), vehicle: Klucel (hydroxypropylcellulose) (HPC) 96 % of control | [8] 89 % of control

CN1CCC2(CC1)N=C1CCN(C)CC1S2 (configuration not stated)
inactive: dose: 100.0 mg/kg/injection, schedule: Q01DX001 (ip), vehicle: saline with Tween-80 102 % of control | dose: 200.0 mg/kg/injection, schedule: Q01DX001 (ip), vehicle: saline with Tween-80 109 % of control

CCN(CC)C(=O)c1cc(OC)c(C(=O)N(CC)CC)cc1OC
inactive: [9] 100 % of control | [10] 108 % of control | [11] 101 % of control

CCC1C2Cc3ccc(O)cc3C1(CC)CCN2C (configuration not stated)
inactive: dose: 6.25 mg/kg/injection, schedule: Q01DX005 (ip), vehicle: saline with Tween-80 99 % of control | dose: 12.5 mg/kg/injection, schedule: Q01DX005 (ip), vehicle: saline with Tween-80 99 % of control | dose: 25.0 mg/kg/injection, schedule: Q01DX005 (ip), vehicle: saline with Tween-80 95 % of control | [12] 103 % of control | [7] 100 % of control | [13] 106 % of control

Cc1ccc(C2(COC(=O)c3ccccc3)CO2)c(OC(=O)C(C)C)c1 (configuration not stated)
inactive: dose: 12.5 mg/kg/injection, schedule: Q01DX009 (ip), vehicle: Klucel (hydroxypropylcellulose) (HPC) 99 % of control | dose: 25.0 mg/kg/injection, schedule: Q01DX009 (ip), vehicle: Klucel (hydroxypropylcellulose) (HPC) 95 % of control | dose: 50.0 mg/kg/injection, schedule: Q01DX009 (ip), vehicle: Klucel (hydroxypropylcellulose) (HPC) 107 % of control | dose: 100.0 mg/kg/injection, schedule: Q01DX009 (ip), vehicle: Klucel (hydroxypropylcellulose) (HPC) 105 % of control

OCC(O)c1c(-c2ccccc2)c(-c2ccccc2)c2n1CCC2 (configuration not stated)
inactive: [12] 96 % of control | [13] 93 % of control | [8] 92 % of control

CC1(C)CC(=O)C2=C(C1)Oc1c(Cl)cc(Cl)cc1C2
inactive: dose: 50.0 mg/kg/injection, schedule: Q01DX009 (ip), vehicle: saline 108 % of control | dose: 100.0 mg/kg/injection, schedule: Q01DX009 (ip), vehicle: saline 98 % of control | dose: 200.0 mg/kg/injection, schedule: Q01DX009 (ip), vehicle: saline 92 % of control

CC(Cc1ccccc1)N(C)C(=O)c1ccc[n+](C)c1 (configuration not stated)
inactive: dose: 50.0 mg/kg/injection, schedule: Q01DX005 (ip), vehicle: saline 107 % of control | dose: 100.0 mg/kg/injection, schedule: Q01DX005 (ip), vehicle: saline 109 % of control

CC(=O)Nc1nc(N)nc(N)n1
inactive: [4] 106 % of control | [5] 103 % of control | [6] 88 % of control

CC1C(n2[nH]c(=O)n(C)c2=O)c2ccccc2-n2c(=O)n(C)c(=O)n21 (configuration not stated)
inactive: [12] 96 % of control | [13] 101 % of control | [8] 103 % of control

C1NNCC12CNNC2
inactive: dose: 100.0 mg/kg/injection, schedule: Q04DX003 (ip), vehicle: suspension in saline 94 % of control | dose: 200.0 mg/kg/injection, schedule: Q04DX003 (ip), vehicle: suspension in saline 94 % of control | dose: 400.0 mg/kg/injection, schedule: Q04DX003 (ip), vehicle: suspension in saline 90 % of control

N#Cc1[nH]nc(N)c1C#N
inactive: dose: 100.0 mg/kg/injection, schedule: Q01DX001 (ip), vehicle: water 103 % of control | dose: 200.0 mg/kg/injection, schedule: Q01DX001 (ip), vehicle: water 103 % of control | dose: 400.0 mg/kg/injection, schedule: Q01DX001 (ip), vehicle: water 98 % of control

COC(=O)[C@@]12OC[C@]34[C@H]([C@@H](O)[C@@H]1O)[C@@]1(C)C=C(OC5OC(CO)C(O)C(O)C5O)C(=O)[C@@H](C)[C@@H]1C[C@H]3OC(=O)[C@H](OC(=O)/C=C(\C)C(C)C)[C@@H]24 (some centres not stated)
inactive: dose: 2.0 mg/kg/injection, schedule: Q01DX005 (ip), vehicle: saline + alcohol 100 % of control | dose: 4.0 mg/kg/injection, schedule: Q01DX005 (ip), vehicle: saline + alcohol 94 % of control | dose: 8.0 mg/kg/injection, schedule: Q01DX005 (ip), vehicle: saline + alcohol 94 % of control | dose: 16.0 mg/kg/injection, schedule: Q01DX005 (ip), vehicle: saline + alcohol 106 % of control | dose: 32.0 mg/kg/injection, schedule: Q01DX005 (ip), vehicle: saline + alcohol 111 % of control | dose: 64.0 mg/kg/injection, schedule: Q01DX005 (ip), vehicle: saline + alcohol 108 % of control

CCOC(=O)/C=C/N=[N+]=[N-]
inactive: [9] 102 % of control | [10] 105 % of control | [11] 106 % of control

CCOC(=O)c1ccc([O-])c([I+]c2ccccc2)c1
inactive: dose: 50.0 mg/kg/injection, schedule: Q04DX003 (ip), vehicle: Klucel (hydroxypropylcellulose) (HPC) 100 % of control | dose: 100.0 mg/kg/injection, schedule: Q04DX003 (ip), vehicle: Klucel (hydroxypropylcellulose) (HPC) 100 % of control | dose: 200.0 mg/kg/injection, schedule: Q04DX003 (ip), vehicle: Klucel (hydroxypropylcellulose) (HPC) 101 % of control

Cc1ncn2c(C)nnc2c1C
inactive: [4] 102 % of control | [5] 100 % of control | [6] 102 % of control

CC(=O)[O][Sn]([CH3])([CH3])[CH3]
inactive: dose: 0.37 mg/kg/injection, schedule: Q01DX009 (ip), vehicle: saline 112 % of control | dose: 0.75 mg/kg/injection, schedule: Q01DX009 (ip), vehicle: saline 112 % of control

CC1=C(CCC(=O)O)c2cc3nc(cc4[nH]c(cc4C)cc4[nH]c(cc1n2)cc4C)C(C)(C)C3CCC(=O)O (configuration not stated)
inactive: dose: 3.0 mg/kg/injection, schedule: Q01DX009 (ip), vehicle: Klucel (hydroxypropylcellulose) (HPC) 97 % of control | dose: 6.0 mg/kg/injection, schedule: Q01DX009 (ip), vehicle: Klucel (hydroxypropylcellulose) (HPC) 92 % of control | dose: 12.0 mg/kg/injection, schedule: Q01DX009 (ip), vehicle: Klucel (hydroxypropylcellulose) (HPC) 90 % of control | dose: 24.0 mg/kg/injection, schedule: Q01DX009 (ip), vehicle: Klucel (hydroxypropylcellulose) (HPC) 87 % of control

Reference: PubChem BioAssay AID330 (DTP/NCI, 2004)
